Results reported in US8618094B2, “Fused substituted aminopyrrolidine derivative” (Daiichi Sankyo Company, Limited, priority 2007, dated 2013).
In brackets after ≈: the same amount, converted by molar mass. Like-named read-outs stand apart in the source and are kept apart here.

How the values were obtained:
mouse bone marrow = assay: Mouse bone marrow micronucleus test after intravenous administration; assay type: in vivo
Text: The compound represented by the formula 365 was confirmed to be positive for induction of micronuclei in a mouse bone marrow micronucleus test after intravenous administration.

[1] = Mouse phototoxicity test after intravenous administration; assay type: in vivo
S. aureus FDA 209-P = assay: Antibacterial activity (MIC), standard method of the Japanese Society of Chemotherapy; assay type: cell-based; conditions: Staphylococcus aureus, FDA209
Procedure: (§1) Antibacterial activity of the compounds of the present invention was measured in accordance with the standard method specified by the Japanese Society of Chemotherapy.

S. aureus 870307 = assay: as above; assay type: cell-based; conditions: Staphylococcus aureus
Procedure: as §1

K. pneumoniae TYPE 1 = assay: as above; assay type: cell-based; conditions: Klebsiella pneumoniae, TYPE1
Procedure: as §1

S. pneumoniae J24 = assay: as above; assay type: cell-based; conditions: Streptococcus pneumoniae
Procedure: as §1

E. coli NIHJ = assay: as above; assay type: cell-based; conditions: Escherichia coli
Procedure: as §1

H. influenzae ATCC49247 = assay: as above; assay type: cell-based; conditions: Haemophilus influenzae
Procedure: as §1

P. mirabilis 08103 = assay: as above; assay type: cell-based; conditions: Proteus mirabilis
Procedure: as §1

[2] = tested on: S. pyogenes JCM5674(ATCC12344); assay: as above; assay type: cell-based; conditions: Streptococcus pyogenes
Procedure: as §1

E. cloacae 03400 = assay: as above; assay type: cell-based; conditions: Enterobacter cloacae
Procedure: as §1

S. pneumoniae 104835 = assay: as above; assay type: cell-based; conditions: Streptococcus pneumoniae
Procedure: as §1

S. epidermidis 56500 = assay: as above; assay type: cell-based; conditions: Staphylococcus epidermidis
Procedure: as §1

E. faecalis 19433 = assay: as above; assay type: cell-based; conditions: Enterococcus faecalis
Procedure: as §1

[3] = tested on: M(B). Caterrhalis ATCC25238; assay: as above; assay type: cell-based
Procedure: as §1

S. marcescens 10100 = assay: as above; assay type: cell-based; conditions: Serratia marcescens
Procedure: as §1

P. aeruginosa PAO1 = assay: as above; assay type: cell-based; conditions: Pseudomonas aeruginosa
Procedure: as §1

[4] = H. influenzae ATCC49247 (first half of Table 2), read-out: MIC, H. influenzae ATCC49247
[5] = M(B). Caterrhalis ATCC25238 (first half of Table 2), read-out: MIC, M(B). Caterrhalis ATCC25238

Row | SMILES | MIC (S. aureus FDA 209-P) [µg/mL] | MIC (S. aureus 870307) [µg/mL] | MIC (K. pneumoniae TYPE 1) [µg/mL] | MIC (S. pneumoniae J24) [µg/mL] | MIC (E. coli NIHJ) [µg/mL] | MIC (H. influenzae ATCC49247; [4]) [µg/mL] | MIC (P. mirabilis 08103) [µg/mL] | MIC [2] [µg/mL] | MIC (E. cloacae 03400) [µg/mL] | MIC (S. pneumoniae 104835) [µg/mL] | MIC (S. epidermidis 56500) [µg/mL] | MIC (E. faecalis 19433) [µg/mL] | MIC [3, 5] [µg/mL] | MIC (S. marcescens 10100) [µg/mL] | MIC (P. aeruginosa PAO1) [µg/mL] | melting point | MIC (H. influenzae ATCC49247; ATCC 25238 / ATCC 49247, H. influenzae ATCC25238 as printed (second half of Table 2), read-out: MIC, H. influenzae ATCC25238) [µg/mL] | MIC ([3]; M(B). Caterrhalis [sic] ATCC49247 (Table 2), read-out: MIC, M(B). Caterrhalis ATCC49247) [µg/mL] | induction of micronuclei (mouse bone marrow) | phototoxicity [1]
1 | N[C@@]12CCC[C@@H]1CN(c1c(F)cc3c(=O)c(C(=O)O)cn(C4CC4)c3c1F)C2 [formula 365, reference compound] | – | – | – | – | – | – | – | – | – | – | – | – | – | – | – | – | – | – | positive | positive
2 | COc1c(N2C[C@H]3CC=C[C@@]3(N)C2)c(F)cc2c(=O)c(C(=O)O)cn([C@@H]3C[C@@H]3F)c12 [Example 24, 7-[(1S,5R)-1-Amino-3-azabicyclo[3.3.0]oct-7-en-3-yl]-6-fluoro-1-[(1R,2S)-2-fluorocyclopropyl]-8-methoxy-1,4-dihydro-4-oxoquinoline-3-carboxylic acid] | 0.025 (≈ 0.0599 µM) | 0.78 (≈ 1.87 µM) | 0.1 (≈ 0.24 µM) | 0.05 (≈ 0.12 µM) | 0.025 (≈ 0.0599 µM) | 0.006 (≈ 0.0144 µM) | 0.025 (≈ 0.0599 µM) | 0.1 (≈ 0.24 µM) | 0.025 (≈ 0.0599 µM) | 0.39 (≈ 0.934 µM) | 0.1 (≈ 0.24 µM) | 0.1 (≈ 0.24 µM) | 0.05 (≈ 0.12 µM) | 0.2 (≈ 0.479 µM) | 0.39 (≈ 0.934 µM) | 206 to 208 °C | – | – | – | –
3 | Cc1c(N2C[C@@H]3CCOC[C@@]3(N)C2)c(F)cc2c(=O)c(C(=O)O)cn([C@@H]3C[C@@H]3F)c12 [Example 44, 7-[(1S,6S)-1-Amino-3-oxa-8-azabicyclo[4,3,0]nonan-8-yl]-6-fluoro-1-[(1R,2S)-2-fluorocyclopropyl]-1,4-dihydro-8-methyl-4-oxoquinoline-3-carboxylic acid] | 0.012 (≈ 0.0286 µM) | 0.2 (≈ 0.477 µM) | 0.025 (≈ 0.0596 µM) | 0.05 (≈ 0.119 µM) | ≤ 0.003 | – | 0.025 (≈ 0.0596 µM) | 0.05 (≈ 0.119 µM) | 0.006 (≈ 0.0143 µM) | 0.39 (≈ 0.93 µM) | 0.025 (≈ 0.0596 µM) | 0.1 (≈ 0.238 µM) | – | 0.05 (≈ 0.119 µM) | 0.39 (≈ 0.93 µM) | 159 to 161 °C | ≤ 0.003 | 0.006 (≈ 0.0143 µM) | – | –

Further molecules by falling MIC (S. aureus FDA 209-P), results first:

Row | MIC (S. aureus FDA 209-P) [µg/mL] | MIC (S. aureus 870307) [µg/mL] | MIC (K. pneumoniae TYPE 1) [µg/mL] | MIC (S. pneumoniae J24) [µg/mL] | MIC (E. coli NIHJ) [µg/mL] | MIC (H. influenzae ATCC49247; [4]) [µg/mL] | MIC (P. mirabilis 08103) [µg/mL] | MIC [2] [µg/mL] | MIC (E. cloacae 03400) [µg/mL] | MIC (S. pneumoniae 104835) [µg/mL] | MIC (S. epidermidis 56500) [µg/mL] | MIC (E. faecalis 19433) [µg/mL] | MIC [3, 5] [µg/mL] | MIC (S. marcescens 10100) [µg/mL] | MIC (P. aeruginosa PAO1) [µg/mL] | melting point | MIC (H. influenzae ATCC49247; ATCC 25238 / ATCC 49247, H. influenzae ATCC25238 as printed (second half of Table 2), read-out: MIC, H. influenzae ATCC25238) [µg/mL] | MIC ([3]; M(B). Caterrhalis [sic] ATCC49247 (Table 2), read-out: MIC, M(B). Caterrhalis ATCC49247) [µg/mL] | SMILES | induction of micronuclei (mouse bone marrow) | phototoxicity [1]
4 | 0.012 (≈ 0.0286 µM) | 0.78 (≈ 1.86 µM) | 0.1 (≈ 0.238 µM) | 0.05 (≈ 0.119 µM) | 0.025 (≈ 0.0596 µM) | 0.006 (≈ 0.0143 µM) | 0.05 (≈ 0.119 µM) | 0.025 (≈ 0.0596 µM) | 0.012 (≈ 0.0286 µM) | 0.39 (≈ 0.93 µM) | 0.05 (≈ 0.119 µM) | 0.1 (≈ 0.238 µM) | 0.025 (≈ 0.0596 µM) | 0.1 (≈ 0.238 µM) | 0.78 (≈ 1.86 µM) | 169 to 172 °C | – | – | COc1c(N2C[C@@H]3CCC[C@]3(N)C2)c(F)cc2c(=O)c(C(=O)O)cn([C@@H]3C[C@@H]3F)c12 (single isomer, unassigned) [Example 11, 7-{(1R*,5S*)-1-Amino-3-azabicyclo[3.3.0]octan-3-yl}-6-fluoro-1-[(1R,2S)-2-fluorocyclopropyl]-8-methoxy-1,4-dihydro-4-oxoquinoline-3-carboxylic acid] | negative | negative
5 | 0.012 (≈ 0.0274 µM) | 0.39 (≈ 0.892 µM) | 0.05 (≈ 0.114 µM) | 0.05 (≈ 0.114 µM) | 0.006 (≈ 0.0137 µM) | ≤ 0.003 | 0.025 (≈ 0.0572 µM) | 0.05 (≈ 0.114 µM) | 0.025 (≈ 0.0572 µM) | 0.39 (≈ 0.892 µM) | 0.05 (≈ 0.114 µM) | 0.2 (≈ 0.457 µM) | 0.025 (≈ 0.0572 µM) | 0.2 (≈ 0.457 µM) | 0.78 (≈ 1.78 µM) | 191 to 195 °C (dec.) | – | – | COc1c(N2C[C@]3(N)CCC[C@]3(F)C2)c(F)cc2c(=O)c(C(=O)O)cn([C@@H]3C[C@@H]3F)c12 [Example 15, 7-[(1R,5S)-1-Amino-5-fluoro-3-azabicyclo[3.3.0]octan-3-yl]-6-fluoro-1-[(1R,2S)-2-fluorocyclopropan-1-yl]-1,4-dihydro-8-methoxy-4-oxoquinoline-3-carboxylic acid] | – | –
6 | 0.006 (≈ 0.0139 µM) | 0.1 (≈ 0.232 µM) | 0.2 (≈ 0.464 µM) | 0.025 (≈ 0.0579 µM) | 0.025 (≈ 0.0579 µM) | 0.012 (≈ 0.0278 µM) | 0.05 (≈ 0.116 µM) | 0.025 (≈ 0.0579 µM) | 0.025 (≈ 0.0579 µM) | 0.2 (≈ 0.464 µM) | 0.025 (≈ 0.0579 µM) | 0.1 (≈ 0.232 µM) | 0.025 (≈ 0.0579 µM) | 0.2 (≈ 0.464 µM) | 0.78 (≈ 1.81 µM) | 182 to 203 °C (dec.) | – | – | COc1c(N2C[C@H]3C4(CC4)C[C@@]3(N)C2)c(F)cc2c(=O)c(C(=O)O)cn([C@@H]3C[C@@H]3F)c12 [Example 10, 7-[(1S,5R)-1-Amino-6-spirocyclopropane-3-azabicyclo[3.2.0]heptan-3-yl]-1-[(1R,2S)-2-fluorocyclopropyl]-6-fluoro-1,4-dihydro-8-methoxy-4-oxoquinoline-3-carboxylic acid] | – | –
